Assay results taken from patent US10851072B2 (THE REGENTS OF THE UNIVERSITY OF MICHIGAN, priority 2018, dated 2020).
pIC50: −log10 of the molar value.

Test system: serum response element (SRE)
Assay: SRE.L-Luciferase Reporter Assay
Type: cell-based
Details: Homo sapiens; Table C; HEK-293T cells co-transfected with Gα12Q231L, SRE.L and pRL-TK plasmids; 19 hrs treatment
Protocol: Biological activity of the compounds disclosed herein were assessed in the SRE.L luciferase reporter assay. HEK-293T cells were co-transfected with 2 ng of the Gα12Q231L expression plasmid along with 50 ng of the SRE.L and 7 ng of the pRL-TK luciferase reporter plasmids, as described in the Materials and Methods section. Cells were treated with 0 (vehicle, DMSO alone), 1, 3, 10, 30, and 100 μM of a compound disclosed herein for 19 hrs after transfection before lysis. Luminescence was determined as described in the Materials and Methods section. Just before cell lysis, the viability of the cells was measured using the WST-1 cell proliferation reagent as described in the Materials and Methods section. Data are expressed as percentage of inhibition (DMSO alone=0%). The experiments were performed three separate times to achieve n=3 in triplicate.

In order of rising pIC50:
1. O=C(O)CCCSc1nnc(-c2ccccc2C(F)(F)F)o1 [Compound A5, 4-((5-(2-(trifluoromethyl)phenyl)-1,3,4-oxadiazol-2-yl)thio)butanoic acid]  5.21
2. O=C(O)CCCSc1nnc(-c2cccc(C(F)(F)F)c2Cl)o1 [Compound A20, 4-((5-(2-chloro-3-(trifluoromethyl)phenyl)-1,3,4-oxadiazol-2-yl)thio)butanoic acid]  6.48
3. O=C(O)CCCSc1nnc(-c2ccc(OCC(F)(F)F)cc2)o1 [Compound A17, 4-((5-(4-(2,2,2-trifluoroethoxy)phenyl)-1,3,4-oxadiazol-2-yl)thio)butanoic acid]  6.62
4. O=C(O)CCCSc1nnc(-c2ccccc2F)o1 [Compound A6, 4-((5-(2-fluorophenyl)-1,3,4-oxadiazol-2-yl)thio)butanoic acid]  6.68
5. O=C(O)CCCSc1nnc(-c2ccc(C(F)F)cc2)o1 [Compound A18, 4-((5-(4-(difluoromethyl)phenyl)-1,3,4-oxadiazol-2-yl)thio)butanoic acid]  6.80
6. O=C(O)CCCSc1nnc(-c2ccc(OC(F)F)cc2)o1 [Compound A23, 4-((5-(4-(difluoromethoxy)phenyl)-1,3,4-oxadiazol-2-yl)thio)butanoic acid]  6.89
7. O=C(O)CCCSc1nnc(-c2ccc(OC(F)(F)F)cc2)o1 [Compound A19, 4-((5-(4-(trifluoromethoxy)phenyl)-1,3,4-oxadiazol-2-yl)thio)butanoic acid]  7.11
8. CC(C)(F)c1ccc(-c2nnc(SCCCC(=O)O)o2)cc1 [Compound A22]  8.02
9. O=C(O)CCCSc1nnc(-c2ccc(OC(F)(F)F)cc2Cl)o1 [Compound A14, 4-((5-(2-chloro-4-(trifluoromethoxy)phenyl)-1,3,4-oxadiazol-2-yl)thio)butanoic acid]  8.44
10. O=C(O)CCCSc1nnc(-c2ccc(Cl)cc2Cl)o1 [CCG-232120, reference compound]  8.74
11. O=C(O)CCCSc1nnc(-c2ccc(OCC(F)(F)F)cc2Cl)o1 [Compound A12, 4-((5-(2-chloro-4-(2,2,2-trifluoroethoxy)phenyl)-1,3,4-oxadiazol-2-yl)thio)butanoic acid]  9.10
12. O=C(O)CCCSc1nnc(-c2ccc(Cl)cc2O)o1 [Compound C, 4-((5-(4-chloro-2-hydroxyphenyl)-1,3,4-oxadiazol-2-yl)thio)butanoic acid]  10.70

Same assay, conditions: Homo sapiens; Table D; HEK-293T cells co-transfected with Gα12Q231L, SRE.L and pRL-TK plasmids; 19 hrs treatment

In order of falling pIC50:
1. O=C(O)CCCSc1nnc(-c2ccc(C3CC3)cc2Cl)o1 [Compound A1, 4-((5-(2-chloro-4-cyclopropylphenyl)-1,3,4-oxadiazol-2-yl)thio)butanoic acid]  11.92
2. O=C(O)CCCSc1nnc(-c2ccc(OCC3CC3)cc2Cl)o1 [Compound A7, 4-((5-(2-chloro-4-(cyclopropylmethoxy)phenyl)-1,3,4-oxadiazol-2-yl)thio)butanoic acid]  10.70
3. COC(=O)CCCSc1nnc(-c2ccc(C3CC3)cc2Cl)o1 [Compound A10, Methyl 4-((5-(2-chloro-4-cyclopropylphenyl)-1,3,4-oxadiazol-2-yl)thio)butanoate]  8.52
4. O=C(O)CCCSc1nnc(-c2cc(C3CC3)ccc2Cl)o1 [Compound A4, 4-((5-(2-chloro-5-cyclopropylphenyl)-1,3,4-oxadiazol-2-yl)thio)butanoic acid]  7.96
5. O=C(O)CCCSc1nnc(-c2ccc(OCC3COC3)cc2Cl)o1 [Compound A15, 4-((5-(2-chloro-4-(oxetan-3-ylmethoxy)phenyl)-1,3,4-oxadiazol-2-yl)thio)butanoic acid]  7.46
6. CC1(COc2ccc(-c3nnc(SCCCC(=O)O)o3)c(Cl)c2)COC1 [Compound A16, 4-((5-(2-chloro-4-((3-methyloxetan-3-yl)methoxy)phenyl)-1,3,4-oxadiazol-2-yl)thio)butanoic acid]  7.38

Same assay, conditions: Homo sapiens; Table E; HEK-293T cells co-transfected with Gα12Q231L, SRE.L and pRL-TK plasmids; 19 hrs treatment

Compared with `O=C(O)[C@@H]1CC[C@H](Sc2nnc(-c3ccc(Cl)cc3Cl)o2)C1` (relative stereo) [Compound B7, cis-3-((5-(2,4-dichlorophenyl)-1,3,4-oxadiazol-2-yl)thio)cyclopentanecarboxylic acid], `O=C(O)[C@H]1CC[C@H](Sc2nnc(-c3ccc(Cl)cc3Cl)o2)C1` (relative stereo) [Compound B8, trans-3-((5-(2,4-dichlorophenyl)-1,3,4-oxadiazol-2-yl)thio)cyclopentanecarboxylic acid] is lower in pIC50: 7.82 for the first, under 4.00 for the second.

First: O=C(O)[C@H]1C[C@H](Sc2nnc(-c3ccc(Cl)cc3Cl)o2)C1 [Compound B1, trans-3-((5-(2,4-dichlorophenyl)-1,3,4-oxadiazol-2-yl)thio)cyclobutanecarboxylic acid]
Second: O=C(O)[C@H]1C[C@@H](Sc2nnc(-c3ccc(Cl)cc3Cl)o2)C1 [Compound B2, cis-3-((5-(2,4-Dichlorophenyl)-1,3,4-oxadiazol-2-yl)thio)cyclobutanecarboxylic acid]
The pIC50 of the first is 1.46 log units lower: 6.85 for the first, 8.31 for the second. The second is the more potent here.

Going from `O=C(O)[C@H]1C[C@@H](Sc2nnc(-c3ccc(C4CC4)cc3Cl)o2)C1` [Compound B3, cis-3-((5-(2-chloro-4-cyclopropylphenyl)-1,3,4-oxadiazol-2-yl)thio)cyclobutanecarboxylic acid] to `O=C(O)[C@H]1C[C@H](Sc2nnc(-c3ccc(C4CC4)cc3Cl)o2)C1` [Compound B4, trans-3-((5-(2-chloro-4-cyclopropylphenyl)-1,3,4-oxadiazol-2-yl)thio)cyclobutanecarboxylic acid], the pIC50 falls from 9.34 to 8.59 (0.75 log units).

First: O=C(O)[C@H]1C[C@@H](Sc2nnc(-c3ccc(C(F)(F)F)cc3Cl)o2)C1 [Compound B5, cis-3-((5-(2-chloro-4-(trifluoromethyl)phenyl)-1,3,4-oxadiazol-2-yl)thio)cyclobutanecarboxylic acid]
Second: O=C(O)[C@H]1C[C@H](Sc2nnc(-c3ccc(C(F)(F)F)cc3Cl)o2)C1 [Compound B6, trans-3-((5-(2-chloro-4-(trifluoromethyl)phenyl)-1,3,4-oxadiazol-2-yl)thio)cyclobutanecarboxylic acid]
The pIC50 of the first is 1.38 log units higher: 7.38 for the first, 6.00 for the second. The first is the more potent here.

`O=C(O)[C@H]1CC[C@@H](Sc2nnc(-c3ccc(Cl)cc3Cl)o2)CC1` [Compound B9, cis-4-((5-(2,4-dichlorophenyl)-1,3,4-oxadiazol-2-yl)thio)cyclohexanecarboxylic acid] and `O=C(O)[C@H]1CC[C@H](Sc2nnc(-c3ccc(Cl)cc3Cl)o2)CC1` [Compound B10, trans-4-((5-(2,4-dichlorophenyl)-1,3,4-oxadiazol-2-yl)thio)cyclohexanecarboxylic acid] cannot be ordered by pIC50: under 4.00 for the first, under 4.00 for the second.

Test system: not listed separately
Assay: MLM metabolic stability (half-life)
Type: in vitro ADME, mice
Details: mouse, mouse liver microsomes (MLM), 1 μM compound, beta-NADPH 1 mM, 60 min, LC-MS, read-out: MLM T1/2
Protocol: Compounds (1 μM) were incubated with MLM in the presence of beta-NADPH (1 mM) for 60 min. The remaining drug concentration was measured using LC-MS using multiple reaction monitoring (MRM) mode. Both initial and overall disappearance rate and half-lives were calculated. […] Verapamil was run as a positive control in every assay; its half-life could not exceed 4 min or the assay was considered invalid.

Compared with `O=C(O)CCCSc1nnc(-c2ccc(C3CC3)cc2Cl)o1` [Compound A1, 4-((5-(2-chloro-4-cyclopropylphenyl)-1,3,4-oxadiazol-2-yl)thio)butanoic acid], `O=C(O)CCCSc1nnc(-c2ccc(OC3CC3)cc2Cl)o1` [Compound A8, 4-((5-(2-chloro-4-cyclopropoxyphenyl)-1,3,4-oxadiazol-2-yl)thio)butanoic acid] is higher in half-life at 1 μM: 0.783 h for the first, over 1 h for the second.

`O=C(O)CCCSc1nnc(-c2ccc(C(F)(F)F)cc2Cl)o1` [Compound A2] and `O=C(O)CCCSc1nnc(-c2ccc(OCC(F)(F)F)cc2Cl)o1` [Compound A12, 4-((5-(2-chloro-4-(2,2,2-trifluoroethoxy)phenyl)-1,3,4-oxadiazol-2-yl)thio)butanoic acid] cannot be ordered by half-life at 1 μM: over 1 h for the first, over 1 h for the second.

For `O=C(O)[C@H]1C[C@@H](Sc2nnc(-c3ccc(Cl)cc3Cl)o2)C1` [Compound B2, cis-3-((5-(2,4-Dichlorophenyl)-1,3,4-oxadiazol-2-yl)thio)cyclobutanecarboxylic acid], the half-life at 1 μM was over 1 h.

Test system: C57BL/6J mice
Assay: In vivo testing for antifibrotic effects (bleomycin skin injections)
Details: skin of bleomycin-injected mice, Masson's trichrome, dermal thickness; A1 3 or 10 mg/kg PO daily, fourteen days; FIG. 2
Protocol: C57BL/6J mice were ordered from Jackson labs for delivery at 15-16 weeks of age. Mice were preconditioned with supplemental chow for two weeks prior to start of experiment. Mice were randomized by weight into four groups (vehicle, A1 (3 mg/kg), A1 (10 mg/kg), PBS). Each group consisted of two cages with four mice per cage. Drug stock solutions were aliquoted and stored at 4° C. for the duration of the study. Aliquots were warmed to 37° C. and briefly vortexed prior to filling the gavage syringes. Vehicle and A1 groups received daily bleomycin injections (0.1 mL, ID) each afternoon in a defined area of shaved dorsal skin. PBS control group received daily injections (0.1 mL, ID) of PBS in the afternoon. Mice were anesthetized with ketamine/xylazine for ID injections. […]
Fixed skin was paraffin embedded and sectioned at the University of Michigan Comprehensive Cancer Center Histology Core. […] Stained sections were analyzed with an Olympus BX51\DP72 microscope. Dermal thickness was determined by measuring the maximal distance between the epidermal-dermal junction and the dermal-subcutaneous fat junction. […]
Skin sections were weighed and hydrolyzed in 6M HCl at 120° C. for three hours. […] Absorbance was measured at 560 nm using a Synergy HT microplate reader (BioTek Instruments). […]

With `O=C(O)CCCSc1nnc(-c2ccc(C3CC3)cc2Cl)o1` [Compound A1, 4-((5-(2-chloro-4-cyclopropylphenyl)-1,3,4-oxadiazol-2-yl)thio)butanoic acid] the collagen thickness was “reduction”.

Same assay, conditions: skin of bleomycin-injected mice; A1 3 or 10 mg/kg PO daily, fourteen days; FIG. 1

In the case of `O=C(O)CCCSc1nnc(-c2ccc(C3CC3)cc2Cl)o1` [Compound A1, 4-((5-(2-chloro-4-cyclopropylphenyl)-1,3,4-oxadiazol-2-yl)thio)butanoic acid], the hydroxyproline content was “reduction”.
